Article PMC11530689, “Anti colorectal cancer activity and in silico studies of novel pyridine nortopsentin analog as cyclin dependent kinase 6 inhibitor” (Scientific Reports, 2024)
Each block holds one compound with its values, some of them ahead of it.

Columns and labels:
MCF7 cancer cell line = system: MCF7 cancer cell line; set-up: method as in PMID 28688277; conditions: cited from earlier work
CDK1 = system: CDK1; set-up: method as in PMID 28688277; conditions: cited from earlier work
HCT-116 cells = experiment: MTT assay, IC50 determination; assay type: cell-based; conditions: Homo sapiens, HCT-116, colorectal cancer cells, comparator
Method: HCT-116 (colon cancer cell line) was obtained from the American Type Culture Collection (ATCC). The cancer cell line was grown in Dulbecco’s Modified Eagle’s Medium (DMEM) supplemented with 10% fetal bovine serum (FBS), penicillin/streptomycin (100 U/mL and 100 μg/mL, respectively) and 2 mM L-glutamine. The cells were maintained at 37 °C in 5% CO2.
The cytotoxic activity of nortopsintin analogs (4a–4j) was determined by the national cancer institute (NCI, Bethesda, Maryland, USA) against 60 different cancer cell lines at a single concentration of (10^−5 M). For the determination of IC50 value, we used MTT assay kit (Sigma) according to the manufacturer’s protocol. HCT-116 cells were seeded into a 96-well plate at a concentration of 20,000 cells/well. After 24 h, the media was aspirated and replaced with serum-free media containing serial dilutions of the 4i compound. The cells were treated for 48 h in triplicates. […] The percentage of cytotoxicity was calculated using the following equation: % Cytotoxicity = [1 − (AVx/AVNC)] × 100.
Where, AVx denotes the average absorbance of the sample and AVNC denotes the average absorbance of the negative control. The absorbance was measured at 570 nm with reference at 690 nm.

P388 cell line = system: P388 cell line; set-up: method as in PMID 11425579; conditions: cited from earlier work
A549 cell line = system: A549 cell line; set-up: method as in PMID 11425579; conditions: cited from earlier work

Compound: COCCn1cc(-c2nc(-c3c[nH]c4ncccc34)cs2)c2cc(OC)ccc21 [III]
- antitumor activity (MCF7 cancer cell line): demonstrated antitumor activity
- CDK1 activity in vitro (CDK1): inhibiting CDK1 activity in vitro

- IC50 (HCT-116 cells): 10.1 µM
Compound: COc1cccc2c1C(=O)c1c(O)c3c(c(O)c1C2=O)C[C@@](O)(C(=O)CO)C[C@@H]3O[C@H]1C[C@H](N)[C@H](O)[C@H](C)O1 [doxorubicin, reference compound]

Compound: COc1ccc2c(-c3cc(C(F)(F)F)cc(-c4cn(S(=O)(=O)c5ccc(C)cc5)c5cc(OC)ccc45)n3)cn(S(=O)(=O)c3ccc(C)cc3)c2c1 [II, bis(indolyl)-4-trifluoromethylpyridine]
- IC50 (P388 cell line): 4.3 µM
- IC50 (A549 cell line): 1.7 µM
